We go through four compounds from patent US20080076826A1, “POLYMORPHIC CRYSTAL OF 4'-{2-[ (1S, 2R) - 2- HYDROXY -2- (4-HYDROXYPHENYL) -1- METHYLETHYLAMINO] ETHOXY} - 3 - ISOPROPYL-3', 5' -DIMETHYLBIPHENYL - 4 - CARBOXYLIC ACID HYDROCHLORIDE” (KISSEI PHARMACEUTICAL CO., LTD., priority 2005, published 2008).

What all share (type): physicochemical
A short description of data set [1]: Solid stability (Test Example 2): purity after storage for 8 weeks under four conditions.
Description: Each of (A) the α type crystal of biphenylcarboxylic acid hydrochloride (purity 99.8%) and (B) the γ type crystal of biphenylcarboxylic acid hydrochloride (purity 99.8%) were stored (1) at 40° C. for 8 weeks, (2) at 60° C. for 8 weeks, (3) at 40° C. and at a relative humidity of 75% for 8 weeks and (4) at 40° C. and at a relative humidity of 90% for 8 weeks.
Data set [2] can be described thus: Crystal form stability during preservation under usual conditions or medicine preparation steps. Conditions: preservation under usual conditions (25° C., 60% relative humidity) or during pressurization, pulverization and like preparation steps.
The nature of data set [3]: Solid stability (Test Example 1): purity after storage at 60° C., 75% relative humidity, 5 days. Conditions: stored at 60° C. and relative humidity of 75% for 5 days; hydrochloride. How it is done:
Each of (1) amorphous biphenylcarboxylic acid hydrochloride (purity: 97.22%), (2) α type crystal of biphenylcarboxylic acid hydrochloride (purity: 99.56%) and (3) β type crystal of biphenylcarboxylic acid hydrochloride (purity: 99.84%) was stored at 60° C. and at a relative humidity of 75% for 5 days. Purities after the storage were (1) 94.99%, (2) 99.55% and (3) 99.65%, respectively.

Where [4] appears, read: stored at 40° C. and relative humidity of 75% for 8 weeks.
[5] abbreviates: stored at 40° C. and relative humidity of 90% for 8 weeks.

Regarding “4′-{2-[(1S,2R)-2-hydroxy-2-(4-hydroxyphenyl)-1-methylethylamino]ethoxy}-3-isopropyl-3′,5′-dimethylbiphenylcarboxylic acid hydrochloride [γ type crystal]”, the “Purity after the storage” value in data set [1] (setting [4]) is 99.87%; in data set [1] (setting [5]), 98.20%; in data set [1] (stored at 40° C. for 8 weeks), 99.82%; in data set [1] (stored at 60° C. for 8 weeks) it was 99.88%. The “Change of crystal form” value in data set [2] was “do not cause mutual changes in the crystal forms”.

With `Cc1cc(-c2ccc(C(=O)O)c(C(C)C)c2)cc(C)c1OCCN[C@@H](C)[C@H](O)c1ccc(O)cc1.Cl` [amorphous biphenylcarboxylic acid hydrochloride] [4′-{2-[(1S,2R)-2-hydroxy-2-(4-hydroxyphenyl)-1-methylethylamino]ethoxy}-3-isopropyl-3′,5′-dimethylbiphenyl-4-carboxylic acid hydrochloride, reference compound], the “Purity after the storage” value in data set [3] is listed as 94.99%.

Turning to `Cc1cc(-c2ccc(C(=O)O)c(C(C)C)c2)cc(C)c1OCCN[C@@H](C)[C@H](O)c1ccc(O)cc1.Cl` [α type crystal, 4′-{2-[(1S,2R)-2-hydroxy-2-(4-hydroxyphenyl)-1-methylethylamino]ethoxy}-3-isopropyl-3′,5′-dimethylbiphenyl-4-carboxylic acid hydrochloride], the “Purity after the storage” value in data set [1] (setting [4]) is 99.58%; in data set [1] (setting [5]) it was 99.51%; in data set [1] (stored at 40° C. for 8 weeks) it was 99.79%; in data set [1] (stored at 60° C. for 8 weeks) it was 99.78%; in data set [3], 99.55%. Moreover, in data set [2], the “Change of crystal form” value is given as “do not cause mutual changes in the crystal forms”.

In the case of `Cc1cc(-c2ccc(C(=O)O)c(C(C)C)c2)cc(C)c1OCCN[C@@H](C)[C@H](O)c1ccc(O)cc1.Cl` [β type crystal, 4′-{2-[(1S,2R)-2-hydroxy-2-(4-hydroxyphenyl)-1-methylethylamino]ethoxy}-3-isopropyl-3′,5′-dimethylbiphenyl-4-carboxylic acid hydrochloride], the “Purity after the storage” value in data set [3] turned out to be 99.65%. The “Change of crystal form” value in data set [2] is on record as “do not cause mutual changes in the crystal forms”.
